The NIST ThermoML archive (doi:10.1021/je4000394)
Numbers after ± are expanded uncertainties.

Tests used:
[1] = Liquid, Vibrating tube method
[2] = xn = mol fraction of the nth substance listed; settings: Liquid; for mass density: Vibrating tube method; for viscosity: 325.2 K, Flow viscometer

`CCCCCCCCCC` [decane] gave a mass density ([1]; 323.2 K, 100 kPa) of 707 ± 0.3 kg/m3, a mass density ([1]; 323.2 K, 1000 kPa) of 707.9 ± 0.4 kg/m3 and a mass density ([1]; 323.2 K, 2000 kPa) of 708.8 ± 0.4 kg/m3. The mass density ([1]; 323.2 K, 3000 kPa) was 709.7 ± 0.4 kg/m3, the mass density ([1]; 323.2 K, 4000 kPa) was 710.6 ± 0.4 kg/m3 and the mass density ([1]; 323.2 K, 5000 kPa) was 711.5 ± 0.4 kg/m3. The mass density ([1]; 323.2 K, 6000 kPa) was 712.4 ± 0.4 kg/m3, the mass density ([1]; 323.2 K, 7000 kPa) was 713.3 ± 0.4 kg/m3 and the mass density ([1]; 323.2 K, 8000 kPa) was 714.1 ± 0.4 kg/m3. It also gave a mass density ([1]; 323.2 K, 9000 kPa) of 715 ± 0.4 kg/m3 and a mass density ([1]; 323.2 K, 10000 kPa) of 715.9 ± 0.4 kg/m3.
Compound `CCCCCCCCCC` [decane] + CCCCCCCCCCCCCCCCCC has a mass density ([2]; 323.2 K, 100 kPa, x1 = 1) of 707 ± 0.3 kg/m3, a mass density ([2]; 323.2 K, 1000 kPa, x1 = 1) of 707.9 ± 0.4 kg/m3 and a mass density ([2]; 323.2 K, 2000 kPa, x1 = 1) of 708.8 ± 0.4 kg/m3. The mass density ([2]; 323.2 K, 3000 kPa, x1 = 1) was 709.7 ± 0.4 kg/m3, the mass density ([2]; 323.2 K, 4000 kPa, x1 = 1) was 710.6 ± 0.4 kg/m3 and the mass density ([2]; 323.2 K, 5000 kPa, x1 = 1) was 711.5 ± 0.4 kg/m3. It also gave a mass density ([2]; 323.2 K, 6000 kPa, x1 = 1) of 712.4 ± 0.4 kg/m3, a mass density ([2]; 323.2 K, 7000 kPa, x1 = 1) of 713.3 ± 0.4 kg/m3 and a mass density ([2]; 323.2 K, 8000 kPa, x1 = 1) of 714.1 ± 0.4 kg/m3. It also gave a mass density ([2]; 323.2 K, 9000 kPa, x1 = 1) of 715 ± 0.4 kg/m3 and a mass density ([2]; 323.2 K, 10000 kPa, x1 = 1) of 715.9 ± 0.4 kg/m3.
`CCCCCCCCCCCCCCCCCC` [octadecane] gave a mass density ([1]; 323 K, 100 kPa) of 761.2 ± 0.4 kg/m3, a mass density ([1]; 323 K, 1000 kPa) of 761.9 ± 0.4 kg/m3 and a mass density ([1]; 323 K, 2000 kPa) of 762.7 ± 0.4 kg/m3. The mass density ([1]; 323 K, 3000 kPa) was 763.3 ± 0.4 kg/m3, the mass density ([1]; 323 K, 4000 kPa) was 764 ± 0.4 kg/m3 and the mass density ([1]; 323 K, 5000 kPa) was 764.8 ± 0.4 kg/m3. It also gave a mass density ([1]; 323 K, 6000 kPa) of 765.4 ± 0.4 kg/m3, a mass density ([1]; 323 K, 7000 kPa) of 766 ± 0.4 kg/m3 and a mass density ([1]; 323 K, 8000 kPa) of 766.7 ± 0.4 kg/m3. It also gave a mass density ([1]; 323 K, 9000 kPa) of 767.5 ± 0.4 kg/m3 and a mass density ([1]; 323 K, 10000 kPa) of 768.1 ± 0.4 kg/m3.
In the case of `CCCCCCCCCCCCCCCCCC` [octadecane] + CCCCCCCCCC, the mass density ([2]; 323 K, 100 kPa, x2 = 0) is reported as 761.2 ± 0.4 kg/m3, the mass density ([2]; 323 K, 100 kPa, x2 = 0.75) is reported as 726.3 ± 0.4 kg/m3 and the mass density ([2]; 323 K, 1000 kPa, x2 = 0) is reported as 761.9 ± 0.4 kg/m3. For the same compound, the mass density ([2]; 323 K, 1000 kPa, x2 = 0.75) was 727.1 ± 0.4 kg/m3, the mass density ([2]; 323 K, 2000 kPa, x2 = 0) was 762.7 ± 0.4 kg/m3 and the mass density ([2]; 323 K, 2000 kPa, x2 = 0.75) was 728 ± 0.4 kg/m3. For the same compound, the mass density ([2]; 323 K, 3000 kPa, x2 = 0) was 763.3 ± 0.4 kg/m3, the mass density ([2]; 323 K, 3000 kPa, x2 = 0.75) was 728.8 ± 0.4 kg/m3 and the mass density ([2]; 323 K, 4000 kPa, x2 = 0) was 764 ± 0.4 kg/m3. The mass density ([2]; 323 K, 4000 kPa, x2 = 0.75) was 729.6 ± 0.4 kg/m3, the mass density ([2]; 323 K, 5000 kPa, x2 = 0) was 764.8 ± 0.4 kg/m3 and the mass density ([2]; 323 K, 5000 kPa, x2 = 0.75) was 730.4 ± 0.4 kg/m3. The mass density ([2]; 323 K, 6000 kPa, x2 = 0) was 765.4 ± 0.4 kg/m3, the mass density ([2]; 323 K, 6000 kPa, x2 = 0.75) was 731.2 ± 0.4 kg/m3 and the mass density ([2]; 323 K, 7000 kPa, x2 = 0) was 766 ± 0.4 kg/m3. It also gave a mass density ([2]; 323 K, 7000 kPa, x2 = 0.75) of 732.1 ± 0.4 kg/m3, a mass density ([2]; 323 K, 8000 kPa, x2 = 0) of 766.7 ± 0.4 kg/m3 and a mass density ([2]; 323 K, 8000 kPa, x2 = 0.75) of 732.9 ± 0.4 kg/m3. For the same compound, the mass density ([2]; 323 K, 9000 kPa, x2 = 0) was 767.5 ± 0.4 kg/m3, the mass density ([2]; 323 K, 9000 kPa, x2 = 0.75) was 733.7 ± 0.4 kg/m3 and the mass density ([2]; 323 K, 10000 kPa, x2 = 0) was 768.1 ± 0.4 kg/m3. For the same compound, the mass density ([2]; 323 K, 10000 kPa, x2 = 0.75) was 734.5 ± 0.4 kg/m3, the mass density ([2]; 323.1 K, 100 kPa, x2 = 0.25) was 752.2 ± 0.4 kg/m3 and the mass density ([2]; 323.1 K, 100 kPa, x2 = 0.5) was 740.8 ± 0.4 kg/m3. It also gave a mass density ([2]; 323.1 K, 1000 kPa, x2 = 0.25) of 752.9 ± 0.4 kg/m3, a mass density ([2]; 323.1 K, 1000 kPa, x2 = 0.5) of 741.6 ± 0.4 kg/m3 and a mass density ([2]; 323.1 K, 2000 kPa, x2 = 0.25) of 753.7 ± 0.4 kg/m3. For the same compound, the mass density ([2]; 323.1 K, 2000 kPa, x2 = 0.5) was 742.4 ± 0.4 kg/m3, the mass density ([2]; 323.1 K, 3000 kPa, x2 = 0.25) was 754.5 ± 0.4 kg/m3 and the mass density ([2]; 323.1 K, 3000 kPa, x2 = 0.5) was 743.1 ± 0.4 kg/m3. For the same compound, the mass density ([2]; 323.1 K, 4000 kPa, x2 = 0.25) was 755.2 ± 0.4 kg/m3, the mass density ([2]; 323.1 K, 4000 kPa, x2 = 0.5) was 743.9 ± 0.4 kg/m3 and the mass density ([2]; 323.1 K, 5000 kPa, x2 = 0.25) was 755.9 ± 0.4 kg/m3. For the same compound, the mass density ([2]; 323.1 K, 5000 kPa, x2 = 0.5) was 744.7 ± 0.4 kg/m3, the mass density ([2]; 323.1 K, 6000 kPa, x2 = 0.25) was 756.7 ± 0.4 kg/m3 and the mass density ([2]; 323.1 K, 6000 kPa, x2 = 0.5) was 745.5 ± 0.4 kg/m3. It also gave a mass density ([2]; 323.1 K, 7000 kPa, x2 = 0.25) of 757.3 ± 0.4 kg/m3, a mass density ([2]; 323.1 K, 7000 kPa, x2 = 0.5) of 746.2 ± 0.4 kg/m3 and a mass density ([2]; 323.1 K, 8000 kPa, x2 = 0.25) of 758.1 ± 0.4 kg/m3. It also gave a mass density ([2]; 323.1 K, 8000 kPa, x2 = 0.5) of 747 ± 0.4 kg/m3, a mass density ([2]; 323.1 K, 9000 kPa, x2 = 0.25) of 758.8 ± 0.4 kg/m3 and a mass density ([2]; 323.1 K, 9000 kPa, x2 = 0.5) of 747.8 ± 0.4 kg/m3. The mass density ([2]; 323.1 K, 10000 kPa, x2 = 0.25) was 759.6 ± 0.4 kg/m3, the mass density ([2]; 323.1 K, 10000 kPa, x2 = 0.5) was 748.6 ± 0.4 kg/m3 and the viscosity ([2]; 100 kPa, x1 = 0.25) was 0.883 ± 0.07 mPa·s. It also gave a viscosity ([2]; 100 kPa, x1 = 0.5) of 1.31 ± 0.12 mPa·s and a viscosity ([2]; 100 kPa, x1 = 0.75) of 1.702 ± 0.14 mPa·s.
